Measurements as given in patent US20130210054A1, “Amino Acid Copolymer Assay” (Momenta Pharmaceuticals, Inc., priority 2012, published 2013).

Key:
Assay type in all cases: cell-based, Balb/c mice
[1] = test system: GA-specific polarized Th2 cells; assay: GA-Th2 assay: IL-4 in culture media by ELISA; conditions: 0 to 50 μg/ml antigen, 24 hours, sandwich ELISA
Procedure: Populations of Th2 cells and APC cells were reanimated in culture media (RPMI/5% FBS/20 ng/mL IL-2), added dropwise. Cells were pelleted at 400-800G before being resuspended in fresh culture media for use in the assay. […] The final volume for the assay was 0.2 mL. The set up for the Th2 assay is illustrated in FIG. 7.
Conditioned culture media was collected 24 hours post stimulation for analysis by multiplex assay and ELISA.
The response curve was fit to the four parameter logistic fit equation using nonlinear regression and the EC50 (μg/ml) was calculated. One-way ANOVA followed by Tukey's multiple comparison test (significance level, p<0.05) was used for statistical testing of the dataset for each plate.
IL-4 levels were determined by sandwich ELISA.

[2] = test system: CD4+ T cells; assay: Cytokine levels in culture media of CD4+ T cells from GA-immunized mice after restimulation with antigen and APCs (multiplex); conditions: for levels of Th2 cytokines induced: after a second round of stimulation, 20 μg antigen
Procedure: Balb/c mice (Jackson Labs) were immunized with 250 μg/mL of GA (reference lot drug (RLD) or ovalbumin (OVA), each in saline, emulsified in complete Freund's adjuvant (CFA) on day 1. On day 11, the draining lymph nodes were harvested, single cell suspensions were made, and CD4+ T cells were enriched by negative selection immunomagnetic bead purification.
For ex vivo challenge, CD4+ T cells (1×10^6/ml) were re-stimulated with 20 μg/mL of the same antigen used to immunize the mice (RLD, GA, or OVA) in the presence of freshly isolated or frozen naïve mitomycin C-treated splenic APCs (1×10^7/ml) for 3-4 days, at which time, the culture media was replaced with fresh culture media supplemented with 20 ng/ml of IL-2. Cells were split and reseeded at 800,000 cells/mL in media containing 4 parts fresh media (RPMI/5% FBS/20 ng/mL IL-2) and 1 part recycled media from the previous culture. This cycle of changing the media and splitting the cells was repeated for 6 cycles. Cells were frozen and stored as a cell bank.
After cell propagation, the CD4+ T cells were restimulated once again with freshly isolated naïve mitomycin C-treated splenic APCs (1×10^7/ml) for 4 days and 20 μg of the respective antigen. Culture supernatants were collected 72 hours after the start of each restimulation for analysis.
Th1 (IL-2 and IL-12p40), Th2 (IL-4, IL-5 IL-6, IL-10, and IL-13) and Th17 (IL-17) cytokine levels (ng/ml) were measured using multiplex technology (Endogen Searchlight, Rockford, Ill.). A one-way ANOVA followed by Newman-Keuls multiple comparison test (significance level, p<0.05) for each individual measured cytokine was used for statistical analysis.

[3] = test system: GA-specific polarized Th2 cells; assay: Th2 assay: cytokine secretion by GA-specific polarized Th2 cells with APCs and antigen, 9-plex MSD multiplex
Procedure: Populations of Th2 cells and APC cells were reanimated in culture media (RPMI/5% FBS/20 ng/mL IL-2), added dropwise. Cells were pelleted at 400-800G before being resuspended in fresh culture media for use in the assay. For the assay, 150,000 APC cells were combined with a concentration of GA using serial dilution of the GA. The resulting concentration curve provided a range from 0-50 μg/mL GA. APC cells were incubated with the GA for about 10 minutes before the Th2 cells were added. The final volume for the assay was 0.2 mL. The set up for the Th2 assay is illustrated in FIG. 7.
More specifically, GA-specific polarized Th2 cells prepared according to Example 1 were cultured in vitro with varying concentrations of GA (reference standard commercial preparation, Copaxone® or glatiramoid (Sigma-Aldrich (COP-1)) in the presence of syngeneic, mitomycin-C-treated, naïve splenic APCs. Cells were cultured in 96-well plates in a final volume of 200 μl per well, with 50 μl of […] splenic APCs (150×10^3/50 μl) freshly isolated from naïve Balb/c mice, 50 μl of GA-specific polarized Th2 cells (50×10^3/50 μl) and 100 μl of culture media (complete RPMI-10 supplemented with 10% FBS) containing RLD or COP-1 at increasing concentrations of GA from 0 to 50 μg/ml. Conditioned culture media was collected 24 hours post stimulation for analysis by multiplex assay and ELISA. Th1 ([…], IL-2, IL-12p70, TNF-α, KC and IFN-γ) and Th2 (IL-4, IL-5, and IL-10) cytokine levels (pg/ml) were measured using the 9-plex mouse Th1/Th2 cytokine kit from Meso Scale Discovery (MSD) (Gaithersburg, Md.).

In the case of “MOG (35-55): encephalitogenic neuroantigen peptide, Peptides International (MEVGWYRSPFSRVVHLYRNGK; UniProt Q61885 63-83, looked up, fragment)”, the “IL-4 in the culture media (cross-reactivity)” value (from here on “IL-4 in the culture media”) [1] is reported as “no IL-4 was detected”.

“MBP (87-89): myelin basic protein peptide, Peptides International Catalog No. PMB-3973-PI (NRPHLIRLFSRDA; UniProt P04370 87-99, looked up, fragment)” was tested, and the “IL-4 in the culture media” value [1] was “no IL-4 was detected”.

In the case of “L-glutamic acid polymer with L-alanine, L-lysine and L-tyrosine, acetate (salt) [GA]”, the “levels of Th2 cytokines induced” value ([2]; supernatant 72 hours) is reported as “high levels”, the “levels of Th2 cytokines (IL-5, IL-6, IL-10, IL-13) induced” value ([2]; after the first round of stimulation, 20 μg/mL antigen, supernatant 72 hours) is reported as “low but detectable levels” and the “Th17 cytokine IL-17 and Th1 cytokine IL-12p40” value ([2]; with the second round of stimulation) is reported as “selectively down-regulated”.

In the case of “Poly(Ala, Glu, Lys, Tyr) 6:2:5:1 hydrobromide [COP-1]”, the “Th2 cytokines (IL-4, IL-5, IL-10) secreted” value ([3]; 0 to 50 μg/ml antigen, 24 hours) is reported as “dose-dependent increase”, the “levels of IL-2 and TNF-α” value ([3]; 0 to 50 μg/ml, 24 hours) is reported as “quantifiable and exhibited dose dependency” and the “response versus RLD in secretion of the Th2 cytokines” value ([3]; 0 to 50 μg/ml, 24 hours) is reported as “readily distinguishable from RLD”. For the same molecule, the “levels of secreted Th1 cytokines (IL-1β, KC, IFN-γ)” value ([3]; 0 to 50 μg/ml, 24 hours, not dose dependent) was “very low (below limits of quantitation)”, the IL-12 secretion ([3]; 0 to 50 μg/ml, 24 hours, quantitated) was “not dose dependent” and the “doses at which discriminated from RLD in levels of IL-2 and TNF-α secreted” value ([3]; 24 hours) was > 30 µg/mL. The “levels of Th2 cytokines (IL-4, IL-5, IL-10, IL-13), IL-2, IL-6 and TNF-α compared to restimulation with GA” value ([3]; restimulated in the presence of APCs) was “significantly decreased levels”.

“PLP (139-151): encephalitogenic neuroantigen peptide, Peptides International (CHCLGKWLGHPDK; UniProt P60202 139-151, looked up, fragment)” was tested, and the “IL-4 in the culture media” value [1] was “no IL-4 was detected”.

B1: ovalbumin: ovalbumin control antigen (protein, UniProt P01012 2-386, looked up)
Ovalbumin: GSIGAASMEFCFDVFKELKVHHANENIFYCPIAIMSALAMVYLGAKDSTRTQINKVVRFDKLPGFGDSIEAQCGTSVNVHSSLRDILNQITKPNDVYSFSLASRLYAEERYPILPEYLQCVKELYRGGLEPINFQTAADQARELINSWVESQTNGIIRNVLQPSSVDSQTAMVLVNAIVFKGLWEKAFKDEDTQAMPFRVTEQESKPVQMMYQIGLFRVASMASEKMKILELPFASGTMSMLVLLPDEVSGLEQLESIINFEKLTEWTSSNVMEERKIKVYLPRMKMEEKYNLTSVLMAMGITDVFSSSANLSGISSAESLKISQAVHAAHAEINEAGREVVGSAEAGVDAASVSEEFRADHPFLFCIKHIATNAVLFFGRCVSP
In the case of B1, the “levels of Th2 cytokines induced” value ([2]; supernatant 72 hours) is reported as “did not show a corresponding increase”.

B2: murine MBP: murine myelin basic protein, EMD Biosciences Catalog No. 124027 (protein, UniProt P04370 1-250, looked up)
Myelin basic protein: MGNHSGKRELSAEKASKDGEIHRGEAGKKRSVGKLSQTASEDSDVFGEADAIQNNGTSAEDTAVTDSKHTADPKNNWQGAHPADPGNRPHLIRLFSRDAPGREDNTFKDRPSESDELQTIQEDPTAASGGLDVMASQKRPSQRSKYLATASTMDHARHGFLPRHRDTGILDSIGRFFSGDRGAPKRGSGKDSHTRTTHYGSLPQKSQHGRTQDENPVVHFFKNIVTPRTPPPSQGKGGRDSRSGSPMARR
For B2, the “IL-4 in the culture media” value [1] was “no IL-4 was detected”.
